Assay results from patent publication US12010991B1, “Microemulsion with disinfectant properties” (priority 2021, dated 2024).
Read-outs that look alike come from different tables or passages of the source.

## Cc1ccc(C(C)C)cc1O [Example 2, Carvacerol]
Solvent C8-10 Acid Ethanol, Surfactant/Solubilizer Polysorbate 20
  H2O (clarity): Clear
Solvent Ethanol, Surfactant/Solubilizer Polysorbate 20
  H2O (clarity): Cloudy
Solvent NONE, Surfactant/Solubilizer Polysorbate 20 Polysorbate 80
  H2O (clarity): Clear
Solvent NONE, Surfactant/Solubilizer Quat 242 Ti-Nat
  H2O (clarity): Clear
Solvent Propanediol, Surfactant/Solubilizer AB-1 (first entry)
  H2O (clarity): Not Clear
Solvent Propanediol, Surfactant/Solubilizer AB-1 (second entry)
  H2O (clarity): Not Clear
Solvent Propanediol, Surfactant/Solubilizer Polyglycerol
  H2O (clarity): Not Clear
Solvent Propanediol, Surfactant/Solubilizer Polyglycerol D9
  H2O (clarity): Not Clear
Solvent Propanediol, Surfactant/Solubilizer Polyglycerol D9 SugarNate
  H2O (clarity): Not Clear
Solvent Propanediol, Surfactant/Solubilizer Quat 242 Ti-Nat
  H2O (clarity): Not Clear
Solvent Propanediol, Surfactant/Solubilizer Quat 242 Ti-Nat AB-1
  H2O (clarity): Not Clear
Solvent Propanediol, Surfactant/Solubilizer SugaNate 160
  H2O (clarity): Not Clear
